From US11034717B2, “Farnesoid X receptor modulators” (Intercept Pharmaceuticals, Inc., priority 2015, dated 2021) come the findings set out here.

The target of data set [1] is T1, hTGR5 (Homo sapiens (Human), UniProt Q8TDU6). The experiment in a line: HTR-FRET intracellular cAMP assay in NCI-H716 cells. Format: cell-based. The settings on record: Table 1; Ref LCA.
The target in data set [2] is T1, hTGR5. The experiment in a line: Cross species TGR5 activity, CHO cells, human. Format: cell-based.
The target in the next data set is mTGR5 (Mus musculus (Mouse), UniProt Q80SS6). Briefly: Cross species TGR5 activity, CHO cells, mouse. Format: cell-based.
In another data set the target is rTGR5 (Rattus norvegicus (Rat), UniProt Q80T02). Briefly: Cross species TGR5 activity, CHO cells, rat. Format: cell-based.
Sequence of rTGR5 (Q80T02 whole entry): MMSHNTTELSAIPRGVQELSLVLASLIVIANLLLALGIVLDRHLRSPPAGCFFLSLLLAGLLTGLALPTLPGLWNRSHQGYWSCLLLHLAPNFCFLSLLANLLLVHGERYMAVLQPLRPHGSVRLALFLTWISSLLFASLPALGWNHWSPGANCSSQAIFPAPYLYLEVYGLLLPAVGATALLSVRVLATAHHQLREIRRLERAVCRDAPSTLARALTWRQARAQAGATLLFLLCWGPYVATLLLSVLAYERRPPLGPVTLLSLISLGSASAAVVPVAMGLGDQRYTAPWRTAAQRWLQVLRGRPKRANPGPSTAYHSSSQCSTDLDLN
Another data set relates to dTGR5. The experiment in a line: Cross species TGR5 activity, CHO cells, dog. Format: cell-based.
For data set [3], the system named is nuclear receptors LXRP, PXR, CAR, PPARα, PPARγ, RAR, RARα, VDR, TR, PR, RXR, GR, and ER. Briefly: Nuclear receptor selectivity profile (AlphaScreen). Format: biochemical. As to conditions: for Activation of nuclear receptor panel, agonist mode: dose response to 200 μM; for Activity on nuclear receptor panel, antagonist mode: fixed concentration at 10 μM. As to the method:
Using the AlphaScreen assay, the selectivity of a compound of the invention against the following nuclear receptors involved in the metabolic pathways can be evaluated: LXRP, PXR, CAR, PPARα, PPARα, PPARγ, RAR, RARα, VDR, TR, PR, RXR, GR, and ER.
Compounds L1, 3, 5, 6 and 7 were tested against the panel of available nuclear receptor in both agonist and antagonist mode.
For orientation: Alpha assays give light when donor and acceptor beads are brought close together.

Data set [4] has as its system FXR target genes: BSEP, SHP, OSTβ and CYP7A1. The experiment in a line: FXR target gene panel, quantitative RT-PCR in HepG2 cells. Format: cell-based. As to conditions: stimulation for 18 hours. As to the method: To evaluate the capacity of a compound of the invention to modulate FXR target genes, quantitative RT-PCR assays are performed. HepG2 cells are selected as a relevant cell line to determine whether a compound of the invention can regulate the endogenous FXR genetic network. The ability of a compound of the invention to induce FXR target genes is assessed by isolating total RNA from cells treated overnight with 1 μM of compounds A, B, and a compound of the invention.
FXR regulates the expression of several target genes involved in BA homeostasis. Briefly, FXR plays a central role in several metabolic pathways, including i.e., lipid metabolism, bile-acids metabolism, and carbohydrate metabolism. Regarding gene expression profiling, the genes encoding proteins involved in lipid metabolism include, e.g., APOCII, APOE, APOAI, SREBP-1C, VLDL-R, PLTP, and LPL; the genes encoding proteins involved in bile-acids metabolism include, e.g., OSTα/β, BSEP, MRP2, SHP, CYP7A1, FGF19, SULT2A1, and UGT2B4; and the genes encoding proteins involved in carbohydrate metabolism include, e.g., PGCla, PEPCK, and GLUT2. FXR target genes: BSEP, SHP, OSTβ and CYP7A1 were evaluated following stimulation of Compounds 3, 5, 6, and 7 on HepG2 cells for 18 hours. Compound L1 was used as a control.

The subject of the next data set is HepG2 cells. The experiment in a line: In-vitro cytotoxicity, ATP content. Format: cell-based. The settings on record: Table 5A. The source says: To evaluate in-vitro cytotoxicity of a compound of the invention, two different assay methods are employed. The assays evaluate cell viability by measuring ATP levels and cytotoxicity by measuring LDH release. […] It has been called the “molecular unit of currency” when it comes to intracellular energy transfer.
An additional method to determine the viability of cells is to detect the integrity of the membrane that defines the cellular compartmentalization. Measuring the leakage of components out of the cytoplasm, in damaged cell membranes, indicates loss of membrane integrity, and LDH release is the method used to determine common toxicity in cells. HepG2 cells are treated with a compound of the invention, and serial dilutions are performed. LCA dilutions are added to the plated cells as assay controls together with no-cell and untreated cells. The assay is performed in triplicate for each test compound concentration.

A further data set has as its target CYP1A2 (Homo sapiens (Human), UniProt P05177). The experiment in a line: CYP450 inhibition, fluorescent substrate, recombinant baculosomes. Format: in vitro ADME. As to the method: (§1) To evaluate the potential of a compound of the invention for drug-drug interactions, the six main CYP450 isoforms (CYP1A2, CYP2C9, CYP2C19, CYP2D6, CYP2E1, CYP3A4) are investigated (Obach, et al., J Pharmacol. Exp. Ther, 2006, 316, 336-348).
(§2) To determine interaction between a compound of the invention and cytochrome P450 enzymes, the compound of the invention is analyzed by its capacity to inhibit (or not) the production of a fluorescent signal, using recombinant CYP450 proteins (baculosomes; Invitrogen), substrates and inhibitors (Bidstrup, et al., Br J Clin. Pharmacol, 2003, 56, 305-14). As a positive control, a selective inhibitor for each CYP450 isoform is tested in the same plate.

For another data set, the target named is CYP2C19 (Homo sapiens (Human), UniProt P33261). The data set is described as above. Format: in vitro ADME. As to the method:
as §1, §2

For another data set, the target named is CYP2C9 (Homo sapiens (Human), UniProt P11712). Described as above. Format: in vitro ADME. As to the method:
as §1, §2

A further data set addresses CYP2D6 (Homo sapiens (Human), UniProt P10635). The description is as above. Format: in vitro ADME. As to the method: as §1, §2
The target in another data set is CYP2E1 (Homo sapiens (Human), UniProt P05181). The data set is described as above. Format: in vitro ADME. As to the method:
as §1, §2

In another data set the target is CYP3A4 (Homo sapiens (Human), UniProt P08684). The description is as above. Format: in vitro ADME. As to the method: as §1, §2
Sequence of CYP3A4 (P08684 whole entry): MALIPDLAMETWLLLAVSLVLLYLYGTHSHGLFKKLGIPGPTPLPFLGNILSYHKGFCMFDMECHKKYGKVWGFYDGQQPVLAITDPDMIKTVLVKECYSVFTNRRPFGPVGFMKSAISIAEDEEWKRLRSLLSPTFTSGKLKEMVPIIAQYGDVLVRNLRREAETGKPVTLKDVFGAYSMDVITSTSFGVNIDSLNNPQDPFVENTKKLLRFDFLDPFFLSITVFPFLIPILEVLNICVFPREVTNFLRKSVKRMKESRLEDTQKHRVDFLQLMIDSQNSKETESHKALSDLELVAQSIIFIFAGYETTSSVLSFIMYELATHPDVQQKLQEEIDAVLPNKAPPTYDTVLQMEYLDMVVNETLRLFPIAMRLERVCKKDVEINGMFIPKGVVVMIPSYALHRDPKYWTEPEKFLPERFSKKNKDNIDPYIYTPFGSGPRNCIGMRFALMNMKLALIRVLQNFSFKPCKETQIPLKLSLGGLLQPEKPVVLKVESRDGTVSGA
For a further data set, the target named is hERG potassium channel (Homo sapiens (Human), UniProt Q12809). Briefly: biochemical. The settings on record: for hERG potassium channel inhibition (in words): Table 7 footnote. The text has this: The assay is based on the assumption that the hERG potassium channel activity contributes to the resting membrane potential in permanently transfected cells, and thus a block of hERG channels should result in a depolarization of the cell membrane. The assay is designed to identify potential hERG channel blockers by producing data that accurately correlates with patch-clamp electrophysiology studies.
Sequence of hERG potassium channel (Q12809 whole entry): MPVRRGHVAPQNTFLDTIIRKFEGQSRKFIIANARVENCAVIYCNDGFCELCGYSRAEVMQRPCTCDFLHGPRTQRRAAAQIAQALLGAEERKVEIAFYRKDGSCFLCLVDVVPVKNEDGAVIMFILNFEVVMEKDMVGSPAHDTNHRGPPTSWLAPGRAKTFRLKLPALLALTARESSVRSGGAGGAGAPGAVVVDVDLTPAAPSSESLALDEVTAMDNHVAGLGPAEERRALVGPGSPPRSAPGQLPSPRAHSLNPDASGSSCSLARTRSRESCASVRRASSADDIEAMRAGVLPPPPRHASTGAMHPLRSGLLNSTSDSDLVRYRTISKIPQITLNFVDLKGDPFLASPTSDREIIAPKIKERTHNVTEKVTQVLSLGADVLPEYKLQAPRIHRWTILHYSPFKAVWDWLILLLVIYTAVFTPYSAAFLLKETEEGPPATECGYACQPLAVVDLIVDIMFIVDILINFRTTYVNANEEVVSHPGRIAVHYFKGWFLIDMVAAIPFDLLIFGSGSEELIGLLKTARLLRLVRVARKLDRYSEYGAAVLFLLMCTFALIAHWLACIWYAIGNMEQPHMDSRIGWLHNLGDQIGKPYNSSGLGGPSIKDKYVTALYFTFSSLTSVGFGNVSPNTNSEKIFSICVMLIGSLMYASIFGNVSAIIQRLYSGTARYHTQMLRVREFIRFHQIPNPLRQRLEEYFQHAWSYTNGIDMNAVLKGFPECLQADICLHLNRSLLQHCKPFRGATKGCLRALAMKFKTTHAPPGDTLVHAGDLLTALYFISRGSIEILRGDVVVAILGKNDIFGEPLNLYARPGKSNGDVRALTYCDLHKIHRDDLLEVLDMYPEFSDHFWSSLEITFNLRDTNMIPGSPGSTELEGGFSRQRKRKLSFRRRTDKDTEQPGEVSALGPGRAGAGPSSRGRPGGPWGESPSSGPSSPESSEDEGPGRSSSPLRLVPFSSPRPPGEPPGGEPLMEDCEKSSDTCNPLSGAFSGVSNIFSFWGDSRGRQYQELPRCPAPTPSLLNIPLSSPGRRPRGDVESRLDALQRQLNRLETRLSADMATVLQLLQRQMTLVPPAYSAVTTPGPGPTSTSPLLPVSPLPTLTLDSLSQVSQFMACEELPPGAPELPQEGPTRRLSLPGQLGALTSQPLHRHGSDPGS
Membrane preparations from Chinese hamster ovary cells stably transfected with hERG potassium channel are used to evaluate the potential inhibitory effect of a compound of the invention on this channel using the Predictor™ fluorescence polarization assay. Reduction of membrane polarization as a result of inhibition of the hERG potassium channel is directly correlated with a reduction of the fluorescence polarization (FP).
An assay window more than 100 mP (millipolarization) is considered good. The non-linear regression curves are obtained by GraphPad Prism (GraphPad Software Inc.) analysis, to calculate the IC50 values.

Data set [5] is described as follows: Critical micellar concentration. Format: physicochemical. The settings on record: determined in […] NaCl water solution. As to the method:
(§3) Physiochemical properties of a compound of the invention such as water solubility, critical micellar concentration, surface tension, and LogPA were determined using methods known in the art.

The nature of data set [6]: 1-octanol-water partition coefficient of ionized species. Format: physicochemical. As to the method: as §3
Setting [7] is: read-out: CYP3A4 (Green substrate) IC50, Green substrate.

Where two headings read alike, the source gives them in different places. Where only a bound is given, the exact number is not on record here.

T1 sequence (Q8TDU6 whole entry): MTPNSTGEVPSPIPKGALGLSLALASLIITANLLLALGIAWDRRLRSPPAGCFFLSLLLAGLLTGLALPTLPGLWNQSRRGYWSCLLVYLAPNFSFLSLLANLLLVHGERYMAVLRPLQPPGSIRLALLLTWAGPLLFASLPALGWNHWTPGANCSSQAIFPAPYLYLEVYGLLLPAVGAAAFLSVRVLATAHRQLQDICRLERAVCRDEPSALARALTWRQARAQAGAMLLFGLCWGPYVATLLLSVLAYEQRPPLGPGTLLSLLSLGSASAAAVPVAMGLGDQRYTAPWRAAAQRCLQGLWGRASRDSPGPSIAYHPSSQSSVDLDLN
Sequence of CYP2C9 (P11712 whole entry): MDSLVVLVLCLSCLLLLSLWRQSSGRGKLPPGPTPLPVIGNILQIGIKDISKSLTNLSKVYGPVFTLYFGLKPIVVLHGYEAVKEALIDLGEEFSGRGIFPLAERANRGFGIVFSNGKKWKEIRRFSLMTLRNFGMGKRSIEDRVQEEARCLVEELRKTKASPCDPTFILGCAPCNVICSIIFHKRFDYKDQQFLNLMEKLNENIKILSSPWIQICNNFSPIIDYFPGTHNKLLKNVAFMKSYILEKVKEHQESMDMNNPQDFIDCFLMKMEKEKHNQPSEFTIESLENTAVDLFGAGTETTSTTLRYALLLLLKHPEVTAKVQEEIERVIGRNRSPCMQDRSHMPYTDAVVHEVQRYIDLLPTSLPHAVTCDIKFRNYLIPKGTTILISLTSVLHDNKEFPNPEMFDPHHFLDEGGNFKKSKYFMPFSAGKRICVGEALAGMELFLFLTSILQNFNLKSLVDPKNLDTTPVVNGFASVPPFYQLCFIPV
Sequence of CYP2C19 (P33261 whole entry): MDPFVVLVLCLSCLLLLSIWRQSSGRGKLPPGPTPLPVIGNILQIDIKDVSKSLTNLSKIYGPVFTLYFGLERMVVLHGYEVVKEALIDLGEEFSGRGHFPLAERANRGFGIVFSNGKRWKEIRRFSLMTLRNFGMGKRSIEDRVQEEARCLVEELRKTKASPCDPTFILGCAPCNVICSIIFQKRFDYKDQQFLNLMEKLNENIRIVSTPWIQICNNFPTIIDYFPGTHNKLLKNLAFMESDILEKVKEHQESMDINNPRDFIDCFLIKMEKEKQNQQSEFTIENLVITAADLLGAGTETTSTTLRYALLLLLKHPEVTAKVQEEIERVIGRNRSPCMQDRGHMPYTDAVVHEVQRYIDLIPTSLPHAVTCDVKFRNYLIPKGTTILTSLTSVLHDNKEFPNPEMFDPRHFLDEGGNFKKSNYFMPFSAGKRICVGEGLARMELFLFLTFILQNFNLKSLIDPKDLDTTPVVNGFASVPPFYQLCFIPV
Sequence of CYP2D6 (P10635 whole entry): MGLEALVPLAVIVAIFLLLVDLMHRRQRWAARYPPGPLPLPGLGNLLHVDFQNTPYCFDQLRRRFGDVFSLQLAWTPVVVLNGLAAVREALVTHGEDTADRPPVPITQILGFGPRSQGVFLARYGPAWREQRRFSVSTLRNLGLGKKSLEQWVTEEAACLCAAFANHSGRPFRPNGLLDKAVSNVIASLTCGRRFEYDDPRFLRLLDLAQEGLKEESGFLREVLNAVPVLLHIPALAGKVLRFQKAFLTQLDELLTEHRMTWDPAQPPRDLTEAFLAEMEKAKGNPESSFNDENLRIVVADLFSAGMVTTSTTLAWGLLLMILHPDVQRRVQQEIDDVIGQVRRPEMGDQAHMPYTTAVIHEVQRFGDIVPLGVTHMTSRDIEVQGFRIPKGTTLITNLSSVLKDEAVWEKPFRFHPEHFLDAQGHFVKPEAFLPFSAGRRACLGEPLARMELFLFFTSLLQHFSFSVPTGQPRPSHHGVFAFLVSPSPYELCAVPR
Sequence of CYP2E1 (P05181 whole entry): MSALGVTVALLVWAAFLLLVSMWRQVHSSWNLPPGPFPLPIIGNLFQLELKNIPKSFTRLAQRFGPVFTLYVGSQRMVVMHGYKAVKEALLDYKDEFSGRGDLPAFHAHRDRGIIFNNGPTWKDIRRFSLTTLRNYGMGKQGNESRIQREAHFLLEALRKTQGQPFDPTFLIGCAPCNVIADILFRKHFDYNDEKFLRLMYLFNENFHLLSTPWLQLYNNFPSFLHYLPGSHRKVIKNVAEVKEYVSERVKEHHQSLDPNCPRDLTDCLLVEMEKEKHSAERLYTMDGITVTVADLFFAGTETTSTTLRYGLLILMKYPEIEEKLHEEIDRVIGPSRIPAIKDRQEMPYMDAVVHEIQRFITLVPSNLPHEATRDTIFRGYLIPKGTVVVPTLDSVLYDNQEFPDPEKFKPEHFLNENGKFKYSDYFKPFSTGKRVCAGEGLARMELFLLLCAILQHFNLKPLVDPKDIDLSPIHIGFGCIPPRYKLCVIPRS
Sequence of CYP1A2 (P05177 whole entry, canonical isoform): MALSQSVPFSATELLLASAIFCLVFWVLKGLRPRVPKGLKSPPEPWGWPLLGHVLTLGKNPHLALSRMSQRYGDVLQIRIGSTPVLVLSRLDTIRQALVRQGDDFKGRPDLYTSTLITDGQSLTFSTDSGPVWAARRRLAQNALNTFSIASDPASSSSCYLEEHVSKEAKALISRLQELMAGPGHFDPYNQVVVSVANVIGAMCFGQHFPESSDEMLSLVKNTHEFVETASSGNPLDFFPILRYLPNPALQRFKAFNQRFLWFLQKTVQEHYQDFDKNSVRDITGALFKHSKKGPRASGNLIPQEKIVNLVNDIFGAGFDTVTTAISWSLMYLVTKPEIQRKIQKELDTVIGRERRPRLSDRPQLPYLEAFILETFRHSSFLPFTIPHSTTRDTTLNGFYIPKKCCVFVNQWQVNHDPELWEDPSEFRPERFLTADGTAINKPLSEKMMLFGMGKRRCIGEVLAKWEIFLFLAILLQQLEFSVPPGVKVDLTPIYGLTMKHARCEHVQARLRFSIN

Consider `CC[C@H]1[C@@H](O)C2C3CC[C@H]([C@H](C)CCCOS(=O)(=O)[O-])[C@@]3(C)C[C@H](O)C2[C@@]2(C)CC[C@@H](O)C[C@@H]12.[Na+]` (stereo partly drawn) [Compound 5, 3α,7α,11β-Trihydroxy-6α-ethyl-5β-cholan-24-O-sulphate, sodium salt], for which the EC50 stood at 78 ± 1 µM on hTGR5 [1], 3 ± 1 µM at hTGR5 [2] and 4 ± 1 µM at mTGR5. The “rTGR5 CHO EC50” value at rTGR5 is recorded as “No activity”. Further, the “dTGR5 CHO EC50” value in the data set with dTGR5 was “No activity”. Further, the “Activation of nuclear receptor panel, agonist mode” value in [3] is “Neither compound activated any of the receptors”. The “Activity on nuclear receptor panel, antagonist mode” value in data set [3] is “Neither compound activated any of the receptors”. Further, the “Modulation of FXR target genes BSEP, SHP, OSTβ and CYP7A1” value in data set [4] is “significantly bind to FXR in hepatic cells modulating FXR target genes”. For the same compound, in the data set on HepG2 cells, the “ATP Content EC50” value is “No toxicity”. The IC50 at CYP1A2, on CYP2C19, on CYP2C9, on CYP2D6, at CYP2E1 and at CYP3A4 was above 10 µM in each case. The half-inhibitory concentration (IC50) at CYP3A4 (setting [7]) was above 10 µM; against hERG potassium channel, above 100 µM. At hERG potassium channel, the “hERG potassium channel inhibition (in words)” value was “Compounds L1, 3, 5, 6 and 7 did not inhibit hERG potassium channel”. Also, the “CMC: Critical Micellar Concentration” value in [5] is given as 8.5 mM. Further, the “LogPA−: 1-octanol-water partition coefficient as ionized species” value (shortened to “LogPA− … as ionized species”) in [6] worked out at 0.61.
As for `CC[C@H]1[C@@H](O)C2C3CC[C@H]([C@H](C)C[C@H](C)C(=O)O)[C@@]3(C)CCC2[C@@]2(C)CC[C@@H](O)C[C@@H]12` (stereo partly drawn) [Compound D, 6α-ethyl-23(R)-methyl chenodeoxycholic acid], the “LogPA− … as ionized species” value in [6] is listed as 2.9.
`CC[C@H]1[C@@H](O)C2C3CC[C@H]([C@H](C)CCO)[C@@]3(C)C[C@H](O)C2[C@@]2(C)CC[C@@H](O)C[C@@H]12` (stereo partly drawn) [Compound 2, 3α,7α,11β-trihydroxy-6α-ethyl-24-nor-5β-cholan-23-ol]: on hTGR5 [1], the EC50 is 93 µM.
In turn, `CC[C@H]1[C@@H](O)C2C3CC[C@H]([C@H](C)CC(=O)O)[C@@]3(C)C[C@H](O)C2[C@@]2(C)CC[C@@H](O)C[C@@H]12` (stereo partly drawn) [Compound 1, 3α,7α,11β-trihydroxy-6α-ethyl-24-nor-5β-cholan-23-oic acid] had an EC50 at hTGR5 [1] above 100 µM.
As to `CC[C@H]1[C@@H](O)[C@@H]2[C@H](CC[C@]3(C)[C@@H]([C@H](C)CCC(=O)O)CC[C@@H]23)[C@@]2(C)CC[C@@H](O)C[C@@H]12` [Compound A, 6α-ethyl-3α,7α-dihydroxy-5β-cholan-24-oic acid, reference compound], the “CMC: Critical Micellar Concentration” value in data set [5] amounted to 2.9 mM. Besides, the “LogPA− … as ionized species” value in data set [6] was found to be 2.5.
“6α-ethyl-3α,7α,23-trihydroxy-24-nor-5β-cholan-23-sulphate sodium salt [Compound B, reference compound]” gave a concentration giving a half-maximal response (EC50) at hTGR5 [1] of 0.63 µM.
Consider `CC[C@H]1[C@@H](O)C2C3CC[C@H]([C@H](C)CCOS(=O)(=O)[O-])[C@@]3(C)C[C@H](O)C2[C@@]2(C)CC[C@@H](O)C[C@@H]12.[Na+]` (stereo partly drawn) [Compound 3, 3α,7α,11β,23-tetrahydroxy-6α-ethyl-24-nor-5β-cholan-23-O-sulphate sodium salt], for which the EC50 on hTGR5 [1] was 83 ± 7 µM; at hTGR5 [2] it was 5 ± 1 µM; on mTGR5, 3 ± 0.5 µM. The “rTGR5 CHO EC50” value on rTGR5 is “No activity”. Besides, the “dTGR5 CHO EC50” value in the data set with dTGR5 is on record as “No activity”. Besides, the “Activation of nuclear receptor panel, agonist mode” value in [3] was “Neither compound activated any of the receptors”. In addition, the “Activity on nuclear receptor panel, antagonist mode” value in [3] is on record as “Neither compound activated any of the receptors”. Further, the “Modulation of FXR target genes BSEP, SHP, OSTβ and CYP7A1” value in data set [4] was “significantly bind to FXR in hepatic cells modulating FXR target genes”. The “ATP Content EC50” value with HepG2 cells is listed as “No toxicity”. Besides, the IC50 on CYP1A2, at CYP2C19, on CYP2C9, on CYP2D6, at CYP2E1 and on CYP3A4 was above 10 µM throughout. The IC50 was above 10 µM at CYP3A4 (setting [7]) and above 100 µM against hERG potassium channel. In addition, the “hERG potassium channel inhibition (in words)” value at hERG potassium channel is “Compounds L1, 3, 5, 6 and 7 did not inhibit hERG potassium channel”. The “CMC: Critical Micellar Concentration” value in data set [5] came to 12.5 mM. Moreover, the “LogPA− … as ionized species” value in [6] worked out at 0.12.
`CC[C@H]1[C@@H](O)C2C3C[C@H](O)[C@H]([C@H](C)CCC(=O)O)[C@@]3(C)CCC2[C@@]2(C)CC[C@@H](O)C[C@@H]12` (stereo partly drawn) [Compound E, reference compound]: in data set [5], the “CMC: Critical Micellar Concentration” value was 5.9 mM. Further, in data set [6], the “LogPA− … as ionized species” value amounted to 1.6.
Taken in the same sequence, the figures for `CC[C@H]1[C@@H](O)C2C3CCC(C(C)CC(C)C(=O)O)[C@@]3(C)[C@@H](O)CC2[C@@]2(C)CC[C@@H](O)C[C@@H]12` (stereo in doubt) [Compound C, 6α-ethyl-23(S)-methyl-3α,7α,12α trihydroxy-5β-cholan-24-oic acid, reference compound] were 2 mM and 1.4.
At hTGR5 [1], `CC[C@H]1[C@@H](O)[C@@H]2[C@H]([C@@H](O)C[C@]3(C)[C@@H]([C@H](C)CCCO)CC[C@@H]23)[C@@]2(C)CC[C@@H](O)C[C@@H]12` [Compound 4, 3α,7α,11β-trihydroxy-6α-ethyl-5β-cholan-24-ol] had a half-maximal effective concentration (EC50) of 13.7 ± 2.3 µM.

The term EC50 denotes the concentration that produces a half-maximal response. One may read the IC50 as the point on the concentration scale where inhibition reaches its midpoint.
